Molecular target: Kynurenine/alpha-aminoadipate aminotransferase, mitochondrial (Homo sapiens, UniProt Q8N5Z0)
Test: Inhibition Spectra Assay : Formation of kynurenic acid (KYNA) is indirectly assessed by a decrease in light absorbance at 370 nm (OD370) as the L-kynurenine (KYN) substrate is converted by the human KAT II (hKAT II) enzyme into KYNA.

Sequence of Kynurenine/alpha-aminoadipate aminotransferase, mitochondrial (Q8N5Z0 whole entry): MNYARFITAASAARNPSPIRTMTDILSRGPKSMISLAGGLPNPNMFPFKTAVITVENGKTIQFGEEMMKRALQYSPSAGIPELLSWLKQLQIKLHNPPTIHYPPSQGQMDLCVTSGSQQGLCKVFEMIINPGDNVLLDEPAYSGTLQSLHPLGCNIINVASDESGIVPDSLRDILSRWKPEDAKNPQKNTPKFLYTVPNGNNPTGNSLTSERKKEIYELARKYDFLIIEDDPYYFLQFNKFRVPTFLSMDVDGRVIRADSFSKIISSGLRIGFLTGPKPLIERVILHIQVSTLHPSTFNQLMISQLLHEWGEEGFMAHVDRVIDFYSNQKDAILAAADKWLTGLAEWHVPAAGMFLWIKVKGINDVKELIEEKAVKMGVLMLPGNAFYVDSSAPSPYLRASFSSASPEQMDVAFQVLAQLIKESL

In the case of NC1Cc2nn(-c3ccccc3)cc2N(O)C1=O (stereo unspecified), the IC50 is reported as 0.085 µM.

Reference: ChEMBL document CHEMBL3639371, “KAT II inhibitors” (2013)
